Data on 3 compounds can be found in patent US7074789B2, “Kinase inhibitors” (Amgen Inc., priority 1999, dated 2006).

Holding throughout (type): biochemical
One assay addresses T1, Fyn (Homo sapiens, UniProt P06241).
T1 construct: Kinases are expressed as either kinase domains or full length constructs; made in house
The assay is described as follows: Kinase inhibition assay (33P transfer), Fyn. The following applies: read-out: Fyn-1. The procedure, abridged:
(§1)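 Radiometric format: recombinant tagged kinase (catalytic domain or whole protein, sometimes combined with regulatory polypeptides) phosphorylates immobilised poly(Glu,Tyr) 4:1 or poly(Arg,Ser) 3:1 using [33P]ATP. Wells are washed in 0.5% phosphoric acid, then counted. IC50 is taken where substrate labelling falls by half.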

The target of a further assay is T2, Hck-1 (Homo sapiens, UniProt P08631).
T2 construct: Kinases are expressed as either kinase domains or full length constructs; made in house
T2 sequence (P08631 whole entry, the tested form may be a part): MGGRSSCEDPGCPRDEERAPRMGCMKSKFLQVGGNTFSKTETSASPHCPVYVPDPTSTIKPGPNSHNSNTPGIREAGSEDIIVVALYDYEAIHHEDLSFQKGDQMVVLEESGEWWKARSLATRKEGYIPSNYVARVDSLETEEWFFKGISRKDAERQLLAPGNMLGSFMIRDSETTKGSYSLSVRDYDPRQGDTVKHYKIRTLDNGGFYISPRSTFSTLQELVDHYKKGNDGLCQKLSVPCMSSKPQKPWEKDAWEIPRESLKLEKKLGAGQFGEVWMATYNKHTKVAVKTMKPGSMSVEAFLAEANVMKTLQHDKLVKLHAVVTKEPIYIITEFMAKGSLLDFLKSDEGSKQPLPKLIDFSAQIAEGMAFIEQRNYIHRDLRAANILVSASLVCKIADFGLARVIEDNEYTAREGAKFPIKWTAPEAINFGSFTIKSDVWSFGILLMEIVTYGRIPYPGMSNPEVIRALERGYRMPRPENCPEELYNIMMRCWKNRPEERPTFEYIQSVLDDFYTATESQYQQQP
In words: Kinase inhibition assay (33P transfer), Hck. The following applies: Table 6, Hck-1 kinase inhibition class.

The target of a further assay is T3, Lck (Homo sapiens, UniProt P06239).
T3 construct: Kinases are expressed as either kinase domains or full length constructs; made in house
The assay is described as follows: Kinase inhibition assay (33P transfer), Lck. The following applies: read-out: Lck-1. In short, it runs like this:
(§2)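 Enzyme activity is taken as the amount of 33PO4 moved from ATP onto poly(Glu, Tyr) 4:1 or poly(Arg, Ser) 3:1 fixed to the plate surface. Unbound label is removed with 0.5% phosphoric acid before scintillation counting.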

The target of the next assay is T4, Zap-70 (Homo sapiens, UniProt P43403).
T4 construct: Kinases are expressed as either kinase domains or full length constructs; made in house
T4 sequence (P43403 1-619): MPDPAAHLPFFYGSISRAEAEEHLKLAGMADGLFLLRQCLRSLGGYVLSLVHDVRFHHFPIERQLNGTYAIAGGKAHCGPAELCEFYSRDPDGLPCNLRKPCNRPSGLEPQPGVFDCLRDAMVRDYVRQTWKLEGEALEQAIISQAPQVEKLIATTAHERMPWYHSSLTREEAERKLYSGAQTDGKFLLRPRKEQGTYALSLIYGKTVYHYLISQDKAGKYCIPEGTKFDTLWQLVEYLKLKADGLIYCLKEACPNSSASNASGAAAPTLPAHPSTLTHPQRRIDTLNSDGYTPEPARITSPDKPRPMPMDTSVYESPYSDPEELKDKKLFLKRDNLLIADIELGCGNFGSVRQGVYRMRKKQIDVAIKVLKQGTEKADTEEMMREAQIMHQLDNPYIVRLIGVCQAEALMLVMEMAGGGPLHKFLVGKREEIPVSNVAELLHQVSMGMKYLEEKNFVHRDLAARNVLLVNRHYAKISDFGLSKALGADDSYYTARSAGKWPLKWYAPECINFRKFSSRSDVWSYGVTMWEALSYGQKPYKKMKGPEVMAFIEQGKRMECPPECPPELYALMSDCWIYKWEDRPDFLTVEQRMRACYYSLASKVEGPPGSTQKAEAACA
The assay is described as follows: Kinase inhibition assay (33P transfer), Zap-70. The following applies: read-out: Zap-1. In short, it runs like this: as §2

The target of another assay is T5, Kdr (Homo sapiens, UniProt P35968).
T5 construct: Kinases are expressed as either kinase domains or full length constructs; made in house
T5 sequence (P35968 20-1356, species assumed): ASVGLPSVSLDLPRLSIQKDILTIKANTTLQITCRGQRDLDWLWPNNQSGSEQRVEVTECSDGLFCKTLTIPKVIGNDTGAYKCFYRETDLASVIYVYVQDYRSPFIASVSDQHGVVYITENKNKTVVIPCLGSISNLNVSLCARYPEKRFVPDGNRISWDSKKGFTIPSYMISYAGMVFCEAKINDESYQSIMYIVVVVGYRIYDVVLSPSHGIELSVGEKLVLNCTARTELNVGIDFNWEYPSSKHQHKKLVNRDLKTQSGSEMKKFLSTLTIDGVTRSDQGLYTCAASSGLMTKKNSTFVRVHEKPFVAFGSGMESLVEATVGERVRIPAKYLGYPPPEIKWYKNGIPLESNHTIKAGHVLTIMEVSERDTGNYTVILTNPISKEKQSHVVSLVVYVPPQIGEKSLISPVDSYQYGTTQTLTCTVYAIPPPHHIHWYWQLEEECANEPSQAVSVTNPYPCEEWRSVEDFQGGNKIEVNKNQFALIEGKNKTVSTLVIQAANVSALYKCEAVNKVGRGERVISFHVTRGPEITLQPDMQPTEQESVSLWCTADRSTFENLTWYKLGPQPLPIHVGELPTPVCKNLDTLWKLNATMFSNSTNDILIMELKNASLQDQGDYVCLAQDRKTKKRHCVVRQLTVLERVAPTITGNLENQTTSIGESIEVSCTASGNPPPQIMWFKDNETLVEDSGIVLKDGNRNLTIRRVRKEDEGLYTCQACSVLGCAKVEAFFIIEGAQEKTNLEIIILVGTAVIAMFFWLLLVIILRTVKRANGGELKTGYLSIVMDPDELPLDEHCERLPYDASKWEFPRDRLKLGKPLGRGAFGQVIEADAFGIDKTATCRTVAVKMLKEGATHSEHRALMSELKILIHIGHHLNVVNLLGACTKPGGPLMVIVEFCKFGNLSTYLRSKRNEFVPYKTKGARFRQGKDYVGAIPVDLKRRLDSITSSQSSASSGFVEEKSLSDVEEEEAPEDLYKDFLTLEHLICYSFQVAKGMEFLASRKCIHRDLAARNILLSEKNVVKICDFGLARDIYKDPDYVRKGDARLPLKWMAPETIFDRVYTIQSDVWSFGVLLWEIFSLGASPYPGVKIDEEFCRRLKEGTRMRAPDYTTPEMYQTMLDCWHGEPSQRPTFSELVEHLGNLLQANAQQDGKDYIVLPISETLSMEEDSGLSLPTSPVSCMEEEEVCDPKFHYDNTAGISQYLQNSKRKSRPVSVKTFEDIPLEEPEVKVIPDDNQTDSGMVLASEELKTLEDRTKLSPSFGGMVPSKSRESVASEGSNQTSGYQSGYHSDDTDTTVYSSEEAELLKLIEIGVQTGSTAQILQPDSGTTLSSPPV
The assay is described as follows: Kinase inhibition assay (33P transfer), Kdr. The following applies: read-out: KDR-1. The procedure, abridged:
as §2

Another assay deals with T6, Flt-1 (Homo sapiens, UniProt P17948).
T6 construct: Kinases are expressed as either kinase domains or full length constructs; made in house
The assay is described as follows: Kinase inhibition assay (33P transfer), Flt-1. In short, it runs like this: as §1

The next assay concerns the target T7, Src (Homo sapiens, UniProt P12931).
T7 construct: Kinases are expressed as either kinase domains or full length constructs; made in house
The assay is described as follows: Kinase inhibition assay (33P transfer), Src. The following applies: Table 6, Src-1 kinase inhibition class. The procedure, abridged: as §1

The target of a further assay is T8, PDGFRB (Homo sapiens, UniProt P09619).
T8 construct: Kinases are expressed as either kinase domains or full length constructs; made in house
In words: Kinase inhibition assay (33P transfer), PDGFRB. The following applies: read-out: PDGFRB-1.

For another assay, the target named is T9, EGFR (Homo sapiens, UniProt P00533).
T9 construct: Kinases are expressed as either kinase domains or full length constructs; made in house
The assay is described as follows: Kinase inhibition assay (33P transfer), EGFR. The following applies: Table 2, kinase inhibition class; read-out: EGFR-1. In short, it runs like this:
as §1

The target in another assay is T10, Tek (Homo sapiens, UniProt Q02763).
T10 construct: Kinases are expressed as either kinase domains or full length constructs; made in house
The assay is described as follows: Kinase inhibition assay (33P transfer), Tek. The following applies: read-out: Tek-1. In short, it runs like this:
as §1

The next assay deals with T11, ErbB2 (Homo sapiens, UniProt P04626).
T11 construct: Kinases are expressed as either kinase domains or full length constructs; made in house
The assay is described as follows: Kinase inhibition assay (33P transfer), ErbB2. The following applies: read-out: ErbB2-2. In short, it runs like this: as §1

Another assay addresses T12, AKT (Homo sapiens, UniProt Q9Y243).
T12 construct: Kinases are expressed as either kinase domains or full length constructs; made in house
The assay is described as follows: Kinase inhibition assay (33P transfer), AKT. The following applies: Table 2, kinase inhibition class; read-out: AKT3-1. In short, it runs like this: as §2

The target in a further assay is T13, Lyn (Homo sapiens, UniProt P07948).
T13 construct: Kinases are expressed as either kinase domains or full length constructs; made in house
The assay is described as follows: Kinase inhibition assay (33P transfer), Lyn. The following applies: Table 6, Lyn-1 kinase inhibition class. In short, it runs like this:
as §1

The target of a further assay is T14, Itk (Homo sapiens, UniProt Q08881).
T14 construct: Kinases are expressed as either kinase domains or full length constructs; made in house
T14 sequence (Q08881 1-620): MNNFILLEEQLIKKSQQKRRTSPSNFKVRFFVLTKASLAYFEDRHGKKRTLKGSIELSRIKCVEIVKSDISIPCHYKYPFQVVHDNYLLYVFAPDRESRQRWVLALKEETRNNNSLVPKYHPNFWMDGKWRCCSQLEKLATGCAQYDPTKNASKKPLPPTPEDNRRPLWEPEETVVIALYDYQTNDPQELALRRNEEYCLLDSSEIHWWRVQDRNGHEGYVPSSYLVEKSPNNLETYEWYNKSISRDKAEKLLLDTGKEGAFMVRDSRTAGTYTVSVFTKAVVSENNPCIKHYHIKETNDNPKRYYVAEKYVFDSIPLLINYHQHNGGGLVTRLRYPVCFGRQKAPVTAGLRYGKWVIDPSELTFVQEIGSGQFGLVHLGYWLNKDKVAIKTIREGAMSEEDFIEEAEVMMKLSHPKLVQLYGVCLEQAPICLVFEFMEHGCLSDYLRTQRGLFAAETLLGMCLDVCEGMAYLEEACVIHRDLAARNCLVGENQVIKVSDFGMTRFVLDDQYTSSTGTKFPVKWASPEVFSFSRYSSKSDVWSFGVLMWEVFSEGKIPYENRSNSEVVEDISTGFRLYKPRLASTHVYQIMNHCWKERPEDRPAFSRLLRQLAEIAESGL
The assay is described as follows: Kinase inhibition assay (33P transfer), Itk. The note with it: read-out: Itk-1. In short, it runs like this:
as §1

The target in the next assay is T15, IGFR-1 (Homo sapiens, UniProt P08069).
T15 construct: Kinases are expressed as either kinase domains or full length constructs; made in house
The assay is described as follows: Kinase inhibition assay, IGFR-1 (Table 2). The following applies: Table 2, kinase inhibition class.

Another assay addresses T16, ErbB4 (Homo sapiens, UniProt Q15303).
T16 construct: Kinases are expressed as either kinase domains or full length constructs; made in house
In words: Kinase inhibition assay (33P transfer), ErbB4. The following applies: read-out: ErbB4-1.

For the next assay, the target named is T17, FGFR1 (Homo sapiens, UniProt P11362).
T17 construct: Kinases are expressed as either kinase domains or full length constructs; made in house
T17 sequence (P11362 22-822, species assumed): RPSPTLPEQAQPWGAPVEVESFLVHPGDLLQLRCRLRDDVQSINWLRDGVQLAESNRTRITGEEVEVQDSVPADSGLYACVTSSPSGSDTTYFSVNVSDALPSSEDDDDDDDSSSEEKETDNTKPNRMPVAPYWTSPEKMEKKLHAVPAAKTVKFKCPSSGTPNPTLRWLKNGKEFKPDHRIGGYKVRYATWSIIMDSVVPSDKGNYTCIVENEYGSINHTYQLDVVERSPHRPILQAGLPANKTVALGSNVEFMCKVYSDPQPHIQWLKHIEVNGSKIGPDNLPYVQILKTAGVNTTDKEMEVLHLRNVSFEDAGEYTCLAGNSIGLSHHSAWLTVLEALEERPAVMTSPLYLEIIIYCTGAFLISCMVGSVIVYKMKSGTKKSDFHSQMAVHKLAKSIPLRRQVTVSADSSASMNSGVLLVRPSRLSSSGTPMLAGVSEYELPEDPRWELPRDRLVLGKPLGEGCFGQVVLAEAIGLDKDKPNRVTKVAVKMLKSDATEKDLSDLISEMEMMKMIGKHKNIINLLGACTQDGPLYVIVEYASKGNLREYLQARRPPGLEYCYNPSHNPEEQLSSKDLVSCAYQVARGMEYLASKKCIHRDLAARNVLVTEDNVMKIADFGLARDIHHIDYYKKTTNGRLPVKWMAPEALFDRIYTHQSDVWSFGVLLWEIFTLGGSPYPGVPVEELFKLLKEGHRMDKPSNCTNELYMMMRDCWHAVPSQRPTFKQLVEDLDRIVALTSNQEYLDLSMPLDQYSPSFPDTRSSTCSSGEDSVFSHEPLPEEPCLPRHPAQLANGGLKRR
In words: Kinase inhibition assay (33P transfer), FGFR1. The following applies: read-out: FGFR1-1.

Another assay addresses T18, Ret-1 (Homo sapiens, UniProt P07949).
T18 construct: Kinases are expressed as either kinase domains or full length constructs; made in house
The assay is described as follows: Kinase inhibition assay (33P transfer), Ret. The following applies: Table 6, Ret-1 kinase inhibition class.

Another assay addresses T19, c-Met (Homo sapiens, UniProt P08581).
T19 construct: Kinases are expressed as either kinase domains or full length constructs; made in house
The assay is described as follows: Kinase inhibition assay (33P transfer), c-Met. The following applies: Table 2, kinase inhibition class; read-out: Met-1. The procedure, abridged: as §1

T19 sequence (P08581 25-1390): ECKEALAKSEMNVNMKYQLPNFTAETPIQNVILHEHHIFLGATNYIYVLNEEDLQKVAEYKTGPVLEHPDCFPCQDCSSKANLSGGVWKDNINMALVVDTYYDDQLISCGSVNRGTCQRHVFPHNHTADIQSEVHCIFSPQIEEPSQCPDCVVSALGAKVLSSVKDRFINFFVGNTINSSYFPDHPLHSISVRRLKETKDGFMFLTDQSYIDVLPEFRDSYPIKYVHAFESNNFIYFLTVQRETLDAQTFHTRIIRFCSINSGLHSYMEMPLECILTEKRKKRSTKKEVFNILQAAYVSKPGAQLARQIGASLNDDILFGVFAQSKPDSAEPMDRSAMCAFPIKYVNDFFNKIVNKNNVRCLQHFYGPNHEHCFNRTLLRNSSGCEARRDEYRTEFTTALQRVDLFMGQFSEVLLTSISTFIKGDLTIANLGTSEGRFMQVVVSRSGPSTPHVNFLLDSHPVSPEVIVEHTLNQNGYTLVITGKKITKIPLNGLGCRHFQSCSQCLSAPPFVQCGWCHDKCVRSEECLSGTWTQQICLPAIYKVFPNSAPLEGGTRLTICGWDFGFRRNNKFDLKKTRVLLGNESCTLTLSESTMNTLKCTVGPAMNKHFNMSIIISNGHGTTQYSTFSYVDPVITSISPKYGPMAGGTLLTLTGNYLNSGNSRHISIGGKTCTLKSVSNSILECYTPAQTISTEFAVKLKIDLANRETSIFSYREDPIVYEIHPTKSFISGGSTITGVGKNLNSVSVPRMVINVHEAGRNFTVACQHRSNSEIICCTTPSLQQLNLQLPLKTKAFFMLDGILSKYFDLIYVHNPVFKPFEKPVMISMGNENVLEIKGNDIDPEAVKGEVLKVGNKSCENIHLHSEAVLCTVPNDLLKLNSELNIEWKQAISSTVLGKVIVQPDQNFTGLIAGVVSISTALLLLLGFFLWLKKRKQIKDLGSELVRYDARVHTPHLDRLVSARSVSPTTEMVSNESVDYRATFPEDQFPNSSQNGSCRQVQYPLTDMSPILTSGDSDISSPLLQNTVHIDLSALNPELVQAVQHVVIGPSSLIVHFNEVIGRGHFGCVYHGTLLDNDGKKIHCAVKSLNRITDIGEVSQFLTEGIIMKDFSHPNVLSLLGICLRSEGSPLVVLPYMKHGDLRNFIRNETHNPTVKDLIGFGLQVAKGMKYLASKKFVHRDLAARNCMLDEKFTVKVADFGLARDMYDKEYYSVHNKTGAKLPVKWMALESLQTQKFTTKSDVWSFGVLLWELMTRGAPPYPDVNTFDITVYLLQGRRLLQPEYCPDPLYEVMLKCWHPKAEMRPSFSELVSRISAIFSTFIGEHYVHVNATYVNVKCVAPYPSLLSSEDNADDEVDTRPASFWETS
T12 sequence (Q9Y243 whole entry, the tested form may be a part): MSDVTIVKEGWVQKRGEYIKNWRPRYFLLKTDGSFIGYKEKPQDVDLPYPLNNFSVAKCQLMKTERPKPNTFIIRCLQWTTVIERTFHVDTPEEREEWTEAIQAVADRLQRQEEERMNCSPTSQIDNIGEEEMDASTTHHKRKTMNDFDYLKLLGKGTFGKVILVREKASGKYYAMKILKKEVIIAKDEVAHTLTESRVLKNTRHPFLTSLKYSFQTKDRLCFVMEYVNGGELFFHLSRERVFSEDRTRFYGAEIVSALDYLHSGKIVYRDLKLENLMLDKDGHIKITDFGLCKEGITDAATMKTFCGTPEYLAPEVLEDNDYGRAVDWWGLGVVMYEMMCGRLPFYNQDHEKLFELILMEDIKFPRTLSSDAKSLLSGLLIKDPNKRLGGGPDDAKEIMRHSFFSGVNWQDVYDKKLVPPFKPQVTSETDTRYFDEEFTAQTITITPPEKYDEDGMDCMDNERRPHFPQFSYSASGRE
T1 sequence (P06241 whole entry, species assumed, the tested form may be a part): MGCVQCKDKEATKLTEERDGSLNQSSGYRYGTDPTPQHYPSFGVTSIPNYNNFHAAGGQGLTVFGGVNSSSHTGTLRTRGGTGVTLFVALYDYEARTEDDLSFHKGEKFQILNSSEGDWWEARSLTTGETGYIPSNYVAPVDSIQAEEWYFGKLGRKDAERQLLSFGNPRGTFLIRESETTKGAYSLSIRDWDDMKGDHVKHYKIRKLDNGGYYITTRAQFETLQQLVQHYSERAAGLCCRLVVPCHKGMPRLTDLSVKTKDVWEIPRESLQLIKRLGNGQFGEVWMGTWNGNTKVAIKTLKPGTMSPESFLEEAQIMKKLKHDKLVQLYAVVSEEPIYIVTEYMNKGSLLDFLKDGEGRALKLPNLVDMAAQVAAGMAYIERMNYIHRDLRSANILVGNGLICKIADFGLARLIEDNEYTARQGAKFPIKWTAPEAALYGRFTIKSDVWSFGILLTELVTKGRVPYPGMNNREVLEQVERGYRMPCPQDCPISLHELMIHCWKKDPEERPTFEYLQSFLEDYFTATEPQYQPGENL

Turning to `COc1cc(Nc2ncnc(Nc3ccc(Br)c4ccccc34)n2)cc(OC)c1OC` [Compound 613], the IC50 was above 9.33 µM at Fyn; above 9.33 µM at Hck-1; 0.829 to 4.98 µM on Lck; above 9.33 µM at Zap-70; 4.98 to 7.26 µM on Kdr; above 9.33 µM against Flt-1. Moreover, the IC50 against Src was above 9.33 µM; at PDGFRB, below 0.829 µM; on EGFR, 0.829 to 4.98 µM; on Tek it was above 9.33 µM; at ErbB2, below 0.829 µM; at AKT, above 9.33 µM. Also, the IC50 at Lyn was 4.98 to 7.26 µM; at Itk it was above 9.33 µM; against IGFR-1, 7.26 to 9.33 µM; at ErbB4, 0.829 to 4.98 µM; at FGFR1, 0.829 to 4.98 µM; at Ret-1, 0.829 to 4.98 µM. For the same compound, on c-Met, the IC50 was above 9.33 µM.

As for `COc1cc(Nc2ncnc(N(C)c3ccc(Cl)cc3)n2)cc(OC)c1OC` [Compound 616], the IC50 is 0.995 to 5.97 µM on Fyn; 5.97 to 8.71 µM against Hck-1; below 0.995 µM on Lck; above 11.2 µM at Zap-70; below 0.995 µM on Kdr; 0.995 to 5.97 µM on Flt-1. Moreover, the IC50 at Src was below 0.995 µM; on PDGFRB, below 0.995 µM; at EGFR, below 0.995 µM; on Tek, 0.995 to 5.97 µM; on ErbB2, 0.995 to 5.97 µM; on AKT, above 11.2 µM. Besides, the IC50 is 0.995 to 5.97 µM against Lyn; above 11.2 µM on Itk; 0.995 to 5.97 µM at IGFR-1; 0.995 to 5.97 µM on ErbB4; 0.995 to 5.97 µM at FGFR1; below 0.995 µM at Ret-1. Further, the IC50 at c-Met was below 0.995 µM.

Turning to `CCN(CC)CCOc1ccc(Nc2ncnc(-n3c(N)nc4ccccc43)n2)cc1OC` [Compound 652], the IC50 at Fyn is above 10 µM; at Hck-1, above 10 µM; on Lck, below 0.892 µM; at Zap-70, above 10 µM; at Kdr, below 0.892 µM; against Flt-1, 0.892 to 5.35 µM. Also, the IC50 was 0.892 to 5.35 µM against Src; 0.892 to 5.35 µM at PDGFRB; above 10 µM on EGFR; 0.892 to 5.35 µM on Tek; 5.35 to 7.8 µM at ErbB2; above 10 µM on AKT. Also, the IC50 against Lyn was 0.892 to 5.35 µM; on Itk, 0.892 to 5.35 µM; against IGFR-1, below 0.892 µM; at ErbB4 it was above 10 µM; at FGFR1 it was below 0.892 µM; against Ret-1, below 0.892 µM. Also, the IC50 at c-Met was 0.892 to 5.35 µM.
